Assay results: US8133849B2, “Herbicidal compounds” (Syngenta Limited, priority 2007, dated 2012)

Key:
Assay in all cases: Example B2 herbicidal action, post-emergence, pots in glasshouse, damage score 0-10
Format in all cases: in vivo
Conditions in all cases: application post-emergence, rate 1000 g/ha, evaluated after 13 days
Amaranthus retroflexus = tested on: Amaranthus retroflexus
Procedure, shortened: (§1)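 Damage was assessed 13 days after a post-emergence spray given to 8-day-old pot seedlings. The spray was an aqueous solution from an acetone/water (50:50) formulation with 0.5% Tween 20. Plants grew in a glasshouse at 24/16° C, 14 h light, 65% humidity, watered twice daily.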

Echinochloa crus-galli = tested on: Echinochloa crus-galli
Procedure, shortened: as §1

Ipomea hederaceae = tested on: Ipomea hederaceae
Procedure, shortened: as §1

Setaria faberi = tested on: Setaria faberi
Procedure, shortened: as §1

Solanum nigrum = tested on: Solanum nigrum
Procedure, shortened: as §1

CCN1c2nccnc2C(OC(=O)C(C)(C)C)=C(c2cc(C(F)(F)F)ccc2Br)S1(=O)=O [Compound C69]
AMARE damage score (10=total damage to plant; 0=no damage to plant) (Amaranthus retroflexus): 4 | ECHCG damage score (10=total damage to plant; 0=no damage to plant) (Echinochloa crus-galli): 2 | IPOHE damage score (10=total damage to plant; 0=no damage to plant) (Ipomea hederaceae): 7 | SETFA damage score (10=total damage to plant; 0=no damage to plant) (Setaria faberi): 0 | SOLNI damage score (10=total damage to plant; 0=no damage to plant) (Solanum nigrum): 6

CC(C)(C)C(=O)OC1=C(c2c(Cl)cccc2C(F)(F)F)S(=O)(=O)N(CC(F)F)c2nccnc21 [Compound C31]
AMARE damage score (10=total damage to plant; 0=no damage to plant) (Amaranthus retroflexus): 8 | ECHCG damage score (10=total damage to plant; 0=no damage to plant) (Echinochloa crus-galli): 8 | IPOHE damage score (10=total damage to plant; 0=no damage to plant) (Ipomea hederaceae): 8 | SETFA damage score (10=total damage to plant; 0=no damage to plant) (Setaria faberi): 7 | SOLNI damage score (10=total damage to plant; 0=no damage to plant) (Solanum nigrum): 9

O=S1(=O)C(c2c(F)cccc2C(F)(F)F)=C(O)c2nccnc2N1CC(F)F [Compound D39]
AMARE damage score (10=total damage to plant; 0=no damage to plant) (Amaranthus retroflexus): 10 | ECHCG damage score (10=total damage to plant; 0=no damage to plant) (Echinochloa crus-galli): 9 | IPOHE damage score (10=total damage to plant; 0=no damage to plant) (Ipomea hederaceae): 10 | SETFA damage score (10=total damage to plant; 0=no damage to plant) (Setaria faberi): 9 | SOLNI damage score (10=total damage to plant; 0=no damage to plant) (Solanum nigrum): 9

O=S1(=O)C(c2cc(Cl)cc(C(F)(F)F)c2)=C(O)c2nccnc2N1CC(F)F [Compound D19]
AMARE damage score (10=total damage to plant; 0=no damage to plant) (Amaranthus retroflexus): 0 | ECHCG damage score (10=total damage to plant; 0=no damage to plant) (Echinochloa crus-galli): 0 | IPOHE damage score (10=total damage to plant; 0=no damage to plant) (Ipomea hederaceae): 0 | SETFA damage score (10=total damage to plant; 0=no damage to plant) (Setaria faberi): 0 | SOLNI damage score (10=total damage to plant; 0=no damage to plant) (Solanum nigrum): 2

CC(C)C(=O)OC1=C(c2ccc(Br)cc2C(F)(F)F)S(=O)(=O)N(CC(F)F)c2nccnc21 [Compound C132]
AMARE damage score (10=total damage to plant; 0=no damage to plant) (Amaranthus retroflexus): 10 | ECHCG damage score (10=total damage to plant; 0=no damage to plant) (Echinochloa crus-galli): 6 | IPOHE damage score (10=total damage to plant; 0=no damage to plant) (Ipomea hederaceae): 10 | SETFA damage score (10=total damage to plant; 0=no damage to plant) (Setaria faberi): 7 | SOLNI damage score (10=total damage to plant; 0=no damage to plant) (Solanum nigrum): 10

CC(C)C(=O)OC1=C(c2ccccc2C#N)S(=O)(=O)N(CC(F)F)c2nccnc21 [Compound C128]
AMARE damage score (10=total damage to plant; 0=no damage to plant) (Amaranthus retroflexus): 7 | ECHCG damage score (10=total damage to plant; 0=no damage to plant) (Echinochloa crus-galli): 0 | IPOHE damage score (10=total damage to plant; 0=no damage to plant) (Ipomea hederaceae): 8 | SETFA damage score (10=total damage to plant; 0=no damage to plant) (Setaria faberi): 0 | SOLNI damage score (10=total damage to plant; 0=no damage to plant) (Solanum nigrum): 9

O=S1(=O)C(c2c(Cl)ccc(Cl)c2C(F)(F)F)=C(O)c2nccnc2N1CC(F)F [Compound D27]
AMARE damage score (10=total damage to plant; 0=no damage to plant) (Amaranthus retroflexus): 9 | ECHCG damage score (10=total damage to plant; 0=no damage to plant) (Echinochloa crus-galli): 7 | IPOHE damage score (10=total damage to plant; 0=no damage to plant) (Ipomea hederaceae): 7 | SETFA damage score (10=total damage to plant; 0=no damage to plant) (Setaria faberi): 8 | SOLNI damage score (10=total damage to plant; 0=no damage to plant) (Solanum nigrum): 8

CCN1c2nccnc2C(O)=C(c2cc(Cl)ccc2C(F)(F)F)S1(=O)=O [Compound D52]
AMARE damage score (10=total damage to plant; 0=no damage to plant) (Amaranthus retroflexus): 5 | ECHCG damage score (10=total damage to plant; 0=no damage to plant) (Echinochloa crus-galli): 4 | IPOHE damage score (10=total damage to plant; 0=no damage to plant) (Ipomea hederaceae): 5 | SETFA damage score (10=total damage to plant; 0=no damage to plant) (Setaria faberi): 4 | SOLNI damage score (10=total damage to plant; 0=no damage to plant) (Solanum nigrum): 7

CCN1c2nccnc2C(O)=C(c2cc(C(F)(F)F)ccc2C(F)(F)F)S1(=O)=O [Compound D24]
AMARE damage score (10=total damage to plant; 0=no damage to plant) (Amaranthus retroflexus): 6 | ECHCG damage score (10=total damage to plant; 0=no damage to plant) (Echinochloa crus-galli): 3 | IPOHE damage score (10=total damage to plant; 0=no damage to plant) (Ipomea hederaceae): 10 | SETFA damage score (10=total damage to plant; 0=no damage to plant) (Setaria faberi): 1 | SOLNI damage score (10=total damage to plant; 0=no damage to plant) (Solanum nigrum): 10

O=S1(=O)C(c2cc(C(F)(F)F)ccc2Cl)=C(O)c2nccnc2N1CC(F)F [Compound D16, 3-(2-chloro-5-trifluoromethyl-phenyl)-1-(2,2-difluoro-ethyl)-2,2-dioxo-1,2-dihydro-2-λ-6-thia-1,5,8-triaza-naphthalen-4-ol]
AMARE damage score (10=total damage to plant; 0=no damage to plant) (Amaranthus retroflexus): 10 | ECHCG damage score (10=total damage to plant; 0=no damage to plant) (Echinochloa crus-galli): 5 | IPOHE damage score (10=total damage to plant; 0=no damage to plant) (Ipomea hederaceae): 9 | SETFA damage score (10=total damage to plant; 0=no damage to plant) (Setaria faberi): 2 | SOLNI damage score (10=total damage to plant; 0=no damage to plant) (Solanum nigrum): 10

O=S1(=O)C(c2c(F)ccc(Br)c2Cl)=C(O)c2nccnc2N1CC(F)F [Compound D14]
AMARE damage score (10=total damage to plant; 0=no damage to plant) (Amaranthus retroflexus): 9 | ECHCG damage score (10=total damage to plant; 0=no damage to plant) (Echinochloa crus-galli): 7 | IPOHE damage score (10=total damage to plant; 0=no damage to plant) (Ipomea hederaceae): 9 | SETFA damage score (10=total damage to plant; 0=no damage to plant) (Setaria faberi): 5 | SOLNI damage score (10=total damage to plant; 0=no damage to plant) (Solanum nigrum): 9

CC(C)(C)C(=O)OC1=C(c2c(Cl)cccc2Cl)S(=O)(=O)N(CC(F)F)c2nccnc21 [Compound C28]
AMARE damage score (10=total damage to plant; 0=no damage to plant) (Amaranthus retroflexus): 7 | ECHCG damage score (10=total damage to plant; 0=no damage to plant) (Echinochloa crus-galli): 2 | IPOHE damage score (10=total damage to plant; 0=no damage to plant) (Ipomea hederaceae): 6 | SETFA damage score (10=total damage to plant; 0=no damage to plant) (Setaria faberi): 2 | SOLNI damage score (10=total damage to plant; 0=no damage to plant) (Solanum nigrum): 6

CC(C)(C)C(=O)OC1=C(c2ccccc2OC(F)(F)F)S(=O)(=O)N(CC(F)F)c2nccnc21 [Compound C21]
AMARE damage score (10=total damage to plant; 0=no damage to plant) (Amaranthus retroflexus): 7 | ECHCG damage score (10=total damage to plant; 0=no damage to plant) (Echinochloa crus-galli): 6 | IPOHE damage score (10=total damage to plant; 0=no damage to plant) (Ipomea hederaceae): 9 | SETFA damage score (10=total damage to plant; 0=no damage to plant) (Setaria faberi): 4 | SOLNI damage score (10=total damage to plant; 0=no damage to plant) (Solanum nigrum): 10

CC(C)(C)C(=O)OC1=C(c2c(Cl)ccc(Cl)c2C(F)(F)F)S(=O)(=O)N(CC(F)F)c2nccnc21 [Compound C52]
AMARE damage score (10=total damage to plant; 0=no damage to plant) (Amaranthus retroflexus): 9 | ECHCG damage score (10=total damage to plant; 0=no damage to plant) (Echinochloa crus-galli): 7 | IPOHE damage score (10=total damage to plant; 0=no damage to plant) (Ipomea hederaceae): 10 | SETFA damage score (10=total damage to plant; 0=no damage to plant) (Setaria faberi): 8 | SOLNI damage score (10=total damage to plant; 0=no damage to plant) (Solanum nigrum): 8

CSC(=O)OC1=C(c2ccc(C(F)(F)F)cc2C(F)(F)F)S(=O)(=O)N(CC(F)F)c2nccnc21 [Compound C131]
AMARE damage score (10=total damage to plant; 0=no damage to plant) (Amaranthus retroflexus): 9 | ECHCG damage score (10=total damage to plant; 0=no damage to plant) (Echinochloa crus-galli): 4 | IPOHE damage score (10=total damage to plant; 0=no damage to plant) (Ipomea hederaceae): 9 | SETFA damage score (10=total damage to plant; 0=no damage to plant) (Setaria faberi): 2 | SOLNI damage score (10=total damage to plant; 0=no damage to plant) (Solanum nigrum): 10

COCN1c2nccnc2C(OC(=O)C(C)C)=C(c2ccc(Cl)cc2Cl)S1(=O)=O [Compound C27]
AMARE damage score (10=total damage to plant; 0=no damage to plant) (Amaranthus retroflexus): 7 | ECHCG damage score (10=total damage to plant; 0=no damage to plant) (Echinochloa crus-galli): 3 | IPOHE damage score (10=total damage to plant; 0=no damage to plant) (Ipomea hederaceae): 6 | SETFA damage score (10=total damage to plant; 0=no damage to plant) (Setaria faberi): 6 | SOLNI damage score (10=total damage to plant; 0=no damage to plant) (Solanum nigrum): 9
